The values below come from patent US20240239792A1, “MODULATORS OF BCL-2 OR BCL-2/BCL-XL AND USES THEREOF” (APPICINE THERAPEUTICS (HK) LIMITED, priority 2021, published 2024).

The target in assay [1] is T1, BCL-2 (Homo sapiens, UniProt P10415).
T1 construct: purchased Cisbio 63ADK000CB01PEG
As to the kind of experiment: HTRF BCL-2/BAK assay (Cisbio). Type of assay: binding. The following applies: recombinant human Tag1-BCL-2 2 nM, Tag2-BAK 10 nM. As for the experimental part: Then the pre-mixed anti-Tag1-Eu^3+ and anti-tag2-XL665 were added to the plate and further incubated at room temperature for another 2 hours. The signals ([…]) were read on Envision 2104 instrument. The IC50 for each compound was derived from fitting the signal of 665/615 nM to the increasing compound concentration.
Using the above assays, the following compounds were tested.
For orientation: TR-FRET usually uses a lanthanide donor and a delayed reading to cut background.

Assay [2] deals with DOHH2 cells. Briefly: CellTiter-Glo cell proliferation assay, DOHH2 cells. Format: cell-based. The following applies: Homo sapiens, DOHH-2, 72 hours. As to the method:
The CellTiter-Glo® Luminescent Cell Viability Assay (Promega, G7573) was used to study the cellular potency of disclosed compounds herein. The cells were harvested during the logarithmic growth period and counted with hemocytometer. The DOHH2 cells were seeded at 1.6*10^4 in 90 ul DMEM medium supplemented with 10% fetal bovine serum (FBS) (as RS4;11 cells were seeded at 4000 in 90 ul RPMI-1640 medium with 10% FBS) per well in 96-well plates and treated with 10 ul of a serial dilution of compounds disclosed herein (maximum concentration and dilution ratio determined by the results of pre-experiment may vary) for 72 hours in a 5% CO2 incubator at 37° C. Cell viability was assessed according to the manufacturer's recommendations. After the plates return to the room temperature, 100 ul of CellTiter-Glo® reagent was added to 100 ul of cell culture. The mixture was agitated on an orbital shaker for 2 minutes or placed it at room temperature for 10 minutes to allow cell lysis and stabilization of luminescent signals. Luminescent signals were recorded using Envision 2104 instrument. And GI50 values were then calculated.

T1 sequence (P10415 whole entry): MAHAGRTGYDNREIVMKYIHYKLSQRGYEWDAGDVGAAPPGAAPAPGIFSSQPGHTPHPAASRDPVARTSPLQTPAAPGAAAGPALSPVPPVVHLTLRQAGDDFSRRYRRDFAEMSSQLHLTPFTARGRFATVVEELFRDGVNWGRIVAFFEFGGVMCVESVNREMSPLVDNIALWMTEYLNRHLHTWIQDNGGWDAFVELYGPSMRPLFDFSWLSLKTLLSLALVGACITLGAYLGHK

Take `O=C(NS(=O)(=O)c1ccc(NCC2CCOCC2)c([N+](=O)[O-])c1)c1ccc(N2CCN(C3CCCCc4ccc(-c5ccccc5)cc43)CC2)cc1Oc1cnc2[nH]ccc2c1` (stereo not shown) [Compound 22, 2-((1H-pyrrolo[2,3-b]pyridin-5-yl)oxy)-N-((3-nitro-4-(((tetrahydro-2H-pyran-4-yl)methyl)amino)phenyl)sulfonyl)-4-(4-(3-phenyl-6,7,8,9-tetrahydro-5H-benzo[7]annulen-5-yl)piperazin-1-yl)benzamide]: the IC50 – broadly, the concentration at which inhibition is half-maximal – in assay [1] was in the range of 20 to 200 nM. Further, the GI50 (commonly the concentration giving 50% growth inhibition) in assay [2] is 500 to 5000 nM.

For `CC(C)(C)OC(=O)N1CC2CC1CC2CNc1ccc(S(=O)(=O)NC(=O)c2ccc(N3CCN([C@@H]4CCCCc5c(Cl)cccc54)CC3)cc2Oc2cnc3[nH]ccc3c2)cc1[N+](=O)[O-]` (stereo partly drawn) [Compound 103, tert-butyl 5-(((4-(N-(2-((1H-pyrrolo[2,3-b]pyridin-5-yl)oxy)-4-(4-((R)-1-chloro-6,7,8,9-tetrahydro-5H-benzo[7]annulen-5-yl)piperazin-1-yl)benzoyl)sulfamoyl)-2-nitrophenyl)amino)methyl)-2-azabicyclo[2.2.1]heptane-2-carboxylate], the IC50 in assay [1] was less than 20 nM. For the same compound, the GI50 in assay [2] fell in the range of 50 to 500 nM.

For the compound `O=C(O)CCN1CCC2(CC1)CC(CNc1ccc(S(=O)(=O)NC(=O)c3ccc(N4CCN([C@@H]5CCCCc6c(Cl)cccc65)CC4)cc3Oc3cnc4[nH]ccc4c3)cc1[N+](=O)[O-])C2` [Compound 126, (R)-3-(2-(((4-(N-(2-((1H-pyrrolo[2,3-b]pyridin-5-yl)oxy)-4-(4-(1-chloro-6,7,8,9-tetrahydro-5H-benzo[7]annulen-5-yl)piperazin-1-yl)benzoyl)sulfamoyl)-2-nitrophenyl)amino)methyl)-7-azaspiro[3.5]nonan-7-yl)propanoic acid], the IC50 in assay [1] is less than 20 nM. Besides, in assay [2], the GI50 is less than 50 nM.

Turning to `O=C(NS(=O)(=O)c1ccc(NCC2CCOCC2)c([N+](=O)[O-])c1)c1ccc(N2CCN(C3CCc4ccccc43)CC2)cc1Oc1cnc2[nH]ccc2c1` (stereo not shown) [Compound 4, 2-((1H-pyrrolo[2,3-b]pyridin-5-yl)oxy)-4-(4-(2,3-dihydro-1H-inden-1-yl)piperazin-1-yl)-N-((3-nitro-4-(((tetrahydro-2H-pyran-4-yl)methyl)amino)phenyl)sulfonyl)benzamide], the IC50 in assay [1] was in the range of 20 to 200 nM. This compound yielded a GI50 in assay [2] of 500 to 5000 nM.

`O=C(NS(=O)(=O)c1ccc(NCC2CC3(CCC(O)CC3)C2)c([N+](=O)[O-])c1)c1ccc(N2CCN([C@@H]3CCCCc4c(Cl)cccc43)CC2)cc1Oc1cnc2[nH]ccc2c1` (stereo partly drawn) [Compound 134, (R)-2-((1H-pyrrolo[2,3-b]pyridin-5-yl)oxy)-4-(4-(1-chloro-6,7,8,9-tetrahydro-5H-benzo[7]annulen-5-yl)piperazin-1-yl)-N-((4-(((7-hydroxyspiro[3.5]nonan-2-yl)methyl)amino)-3-nitrophenyl)sulfonyl)benzamide]: the IC50 in assay [1] was less than 20 nM. In addition, the GI50 in assay [2] was less than 50 nM.

On to `Cc1nnc2n1CC(CNc1ccc(S(=O)(=O)NC(=O)c3ccc(N4CCN(C5CCCCc6c(Cl)cccc65)CC4)cc3Oc3cnc4[nH]ccc4c3)cc1[N+](=O)[O-])CC2` (stereo not shown) [Compound 57, 2-((1H-pyrrolo[2,3-b]pyridin-5-yl)oxy)-4-(4-(1-chloro-6,7,8,9-tetrahydro-5H-benzo[7]annulen-5-yl)piperazin-1-yl)-N-((4-(((3-methyl-5,6,7,8-tetrahydro-[1,2,4]triazolo[4,3-a]pyridin-6-yl)methyl)amino)-3-nitrophenyl)sulfonyl)benzamide], for which the IC50 in assay [1] is less than 20 nM. For the same compound, in assay [2], the GI50 lay within 500 to 5000 nM.

Compound `CC1(C)CCC2(CC1)CC(CNc1ccc(S(=O)(=O)NC(=O)c3ccc(N4CCN([C@@H]5CCCCc6c(Cl)cccc65)CC4)cc3Oc3cnc4[nH]ccc4c3)cc1[N+](=O)[O-])C2` [Compound 136, (R)-2-((1H-pyrrolo[2,3-b]pyridin-5-yl)oxy)-4-(4-(1-chloro-6,7,8,9-tetrahydro-5H-benzo[7]annulen-5-yl)piperazin-1-y1)-N-((4-(((7,7-dimethylspiro[3.5]nonan-2-yl)methyl)amino)-3-nitrophenyl)sulfonyl)benzamide] yielded a GI50 in assay [2] greater than 5000 nM.

On to `O=C(NS(=O)(=O)c1ccc(NCC2CC3(CCC4(CC3)OCCO4)C2)c([N+](=O)[O-])c1)c1ccc(N2CCN([C@@H]3CCCCc4c(Cl)cccc43)CC2)cc1Oc1cnc2[nH]ccc2c1` [Compound 133, (R)-2-((1H-pyrrolo[2,3-b]pyridin-5-yl)oxy)-N-((4-(((8,11-dioxadispiro[3.2.47.24]tridecan-2-yl)methyl)amino)-3-nitrophenyl)sulfony1)-4-(4-(1-chloro-6,7,8,9-tetrahydro-5H-benzo[7]annulen-5-yl)piperazin-1-yl)benzamide], for which the IC50 in assay [1] was less than 20 nM. This compound also gave a GI50 in assay [2] of less than 50 nM.

In the case of `O=C(NS(=O)(=O)c1cccc([N+](=O)[O-])c1)c1ccc(N2CCN(C3CCc4ccccc43)CC2)cc1Oc1cnc2[nH]ccc2c1` (stereo not shown) [Compound 3, 2-((1H-pyrrolo[2,3-b]pyridin-5-yl)oxy)-4-(4-(2,3-dihydro-1H-inden-1-yl)piperazin-1-yl)-N-((3-nitrophenyl)sulfonyl)benzamide], the IC50 in assay [1] is 200 to 2000 nM.

Take `O=C(NS(=O)(=O)c1ccc(NCC2CCOCC2)c([N+](=O)[O-])c1)c1ccc(N2CCN(C3CCCOc4ccccc43)CC2)cc1Oc1cnc2[nH]ccc2c1` (stereo not shown) [Compound 36, 2-((1H-pyrrolo[2,3-b]pyridin-5-yl)oxy)-N-((3-nitro-4-(((tetrahydro-2H-pyran-4-yl)methyl)amino)phenyl)sulfonyl)-4-(4-(2,3,4,5-tetrahydrobenzo[b]oxepin-5-yl)piperazin-1-yl)benzamide]: in assay [1], the IC50 was less than 20 nM. For the same compound, the GI50 in assay [2] was in the range of 50 to 500 nM.

Turning to `O=C(NS(=O)(=O)c1cccc([N+](=O)[O-])c1)c1ccc(N2CCN(C3CCCc4cccc(-c5cccc(Cl)c5)c43)CC2)cc1Oc1cnc2[nH]ccc2c1` (stereo not shown) [Compound 14, 2-((1H-pyrrolo[2,3-b]pyridin-5-yl)oxy)-4-(4-(8-(3-chlorophenyl)-1,2,3,4-tetrahydronaphthalen-1-yl)piperazin-1-yl)-N-((3-nitrophenyl)sulfonyl)benzamide], in assay [1], the half-maximal inhibitory concentration (IC50) was 200 to 2000 nM.

With `O=C(NS(=O)(=O)c1ccc(NCC2CCOCC2)c([N+](=O)[O-])c1)c1ccc(N2CCN(C3CCCCc4c(C5CCCC5)cccc43)CC2)cc1Oc1cnc2[nH]ccc2c1` (stereo not shown) [Compound 55, 2-((1H-pyrrolo[2,3-b]pyridin-5-yl)oxy)-4-(4-(1-cyclopentyl-6,7,8,9-tetrahydro-5H-benzo[7]annulen-5-yl)piperazin-1-yl)-N-((3-nitro-4-(((tetrahydro-2H-pyran-4-yl)methyl)amino)phenyl)sulfonyl)benzamide], in assay [1], the IC50 was 20 to 200 nM. The compound also returned a GI50 in assay [2] greater than 5000 nM.

Consider `O=C(NS(=O)(=O)c1ccc(NCC2CCOCC2)c([N+](=O)[O-])c1)c1ccc(N2CC3(CCN(C4CCCc5ccccc54)CC3)C2)cc1Oc1cnc2[nH]ccc2c1` (stereo not shown) [Compound 92, 2-((1H-pyrrolo[2,3-b]pyridin-5-yl)oxy)-N-((3-nitro-4-(((tetrahydro-2H-pyran-4-yl)methyl)amino)phenyl)sulfonyl)-4-(7-(1,2,3,4-tetrahydronaphthalen-1-yl)-2,7-diazaspiro[3.5]nonan-2-yl)benzamide], for which, in assay [1], the IC50 fell in the range of 20 to 200 nM. In assay [2], this compound showed a GI50 of 500 to 5000 nM.

`O=C(NS(=O)(=O)c1cccc([N+](=O)[O-])c1)c1ccc(N2CCN(C3CCCc4ccccc43)CC2)cc1Oc1cnc2[nH]ccc2c1` (stereo not shown) [Compound 1, 2-((1H-pyrrolo[2,3-b]pyridin-5-yl)oxy)-N-((3-nitrophenyl)sulfonyl)-4-(4-(1,2,3,4-tetrahydronaphthalen-1-yl)piperazin-1-yl)benzamide]: in assay [1], the IC50 fell in the range of 200 to 2000 nM.

Take `O=C(NS(=O)(=O)c1cccc([N+](=O)[O-])c1)c1ccc(N2CCN(C3CCOc4ccccc43)CC2)cc1Oc1cnc2[nH]ccc2c1` (stereo not shown) [Compound 9, 2-((1H-pyrrolo[2,3-b]pyridin-5-yl)oxy)-4-(4-(chroman-4-yl)piperazin-1-yl)-N-((3-nitrophenyl)sulfonyl)benzamide]: the IC50 in assay [1] fell in the range of 200 to 2000 nM.

For `O=C(NS(=O)(=O)c1cccc([N+](=O)[O-])c1)c1ccc(N2CCN(C3CCCc4cccc(-c5cccs5)c43)CC2)cc1Oc1cnc2[nH]ccc2c1` (stereo not shown) [Compound 15, 2-((1H-pyrrolo[2,3-b]pyridin-5-yl)oxy)-N-((3-nitrophenyl)sulfonyl)-4-(4-(8-(thiophen-2-yl)-1,2,3,4-tetrahydronaphthalen-1-yl)piperazin-1-yl)benzamide], the concentration for half-maximal inhibition (IC50) in assay [1] lay within 200 to 2000 nM.

`O=C(NS(=O)(=O)c1cccc([N+](=O)[O-])c1)c1ccc(N2CCN(C3CCCc4cccc(-c5ccsc5)c43)CC2)cc1Oc1cnc2[nH]ccc2c1` (stereo not shown) [Compound 11, 2-((1H-pyrrolo[2,3-b]pyridin-5-yl)oxy)-N-((3-nitrophenyl)sulfonyl)-4-(4-(8-(thiophen-3-yl)-1,2,3,4-tetrahydronaphthalen-1-yl)piperazin-1-yl)benzamide]: the IC50 in assay [1] fell in the range of 200 to 2000 nM.

Take `O=C(NS(=O)(=O)c1cccc([N+](=O)[O-])c1)c1ccc(N2CCN(C3CCCc4cccc(-c5ccccc5)c43)CC2)cc1Oc1cnc2[nH]ccc2c1` (stereo not shown) [Compound 8, 2-((1H-pyrrolo[2,3-b]pyridin-5-yl)oxy)-N-((3-nitrophenyl)sulfonyl)-4-(4-(8-phenyl-1,2,3,4-tetrahydronaphthalen-1-yl)piperazin-1-yl)benzamide]: the IC50 in assay [1] lay in the range of 200 to 2000 nM.
